Data published in article PMC10353061 (ACS Pharmacology & Translational Science, 2023).

Assays:
[1] = system: Wnt/β-catenin signaling pathway; test: Topflash/Fopflash luciferase report assay in HCT116 cells; format: cell-based, human; conditions: 30 μM
Source text: We synthesized derivatives 5–10 bearing 5-membered and 6-membered heterocyclic rings at the position 3′ or 4′ of the B phenyl ring. […] SW480 cells show higher Wnt activation compared to HCT116 cells.[28] […] In SW480 cells, compounds 5–10 were in the 1.75%(10)–7.32%(7) range of residual luciferase activity, except 6(28.46%), compared to 3(21.61%); in HCT116 cells, compounds 5–10 were in the 0.37%(7)–5.88%(5) range, compared to 3 (18.75%) (Table 1 and Figure 5).
Figure 5 Residual luciferase activity (%) by compounds 5–10 and reference compound 3 in SW480 cells (left panel) and HCT116 cells (right panel). Data are represented as the mean ± SD of three independent experiments, each performed in triplicate.
Briefly, the Topflash plasmid (Beyotime, Zhejiang, China) contains 7 TCF/LEF binding sites, while the Fopflash plasmid (Beyotime, Zhejiang, China) contains 6 mutated TCF/LEF binding sites, which are located in the upstream of the luciferase reporter. SW480 and HCT116 cell lines were cultured in 90% DMEM (HyClone, #SH30243.01) plus 10% fetal bovine serum (Gibco, #10270) and plasmocin (mpp-39-03, InvivoGen), respectively. The Topflash/Fopflash vector and plasmid pTK-renilla together were co-transfected to the cells. […] The Dual-Glo luciferase assay kit (Promega, #E1910) was used to measure the luminescence intensity (Figure 2).

[2] = system: Fgf20 and Sal4; test: Wnt-target gene mRNA levels (qPCR) in LiCl-treated HCT116 cells; format: cell-based, human; conditions: HCT116, LiCl 50 mM, 24 h, 10 μM
Method: To this end, HCT116 cells were treated for 24 h with 50 mM LiCl and increasing concentrations (10–50–100 μM) of the two compounds.
HCT116 was treated with LiCl (50 mM) and 10 μM compound 9 or 10 for 24 h. Fgf20, Sall4 (Wnt-target genes) mRNA levels were measured by qPCR and normalized to the expression of β-actin mRNA. Results are expressed as fold change relative to the control sample and represent the mean ± SD of three independent experiments, each performed in triplicate. *p < 0.05, **p < 0.01, ***p < 0.001 as determined by ANOVA.

[3] = system: SW480 cells; test: Cell viability (XTT) of SW480 colon cancer cells; format: cell-based
Method: PKCδ has been recognized to be a proapoptotic kinase; its cleavage and activation promote apoptotic cell death (Table 2).[33]
Cell viability was evaluated by XTT[55] (SW480 cells) or MTT[56] (HCT116 cells) colorimetric assays. Briefly, cells (range 10–30 × 10^3 cells/well) were seeded in 96-well microculture plates and then exposed to increasing concentrations of different compounds (range 0–300 μM) for 48 or 72 h. […] Absorbance at 450 nm and a reference wavelength of 650 nm was then measured using a microplate spectrophotometer (Multiskan FC Microplate Photometer, Thermo Scientific, Waltham, MA). The cell growth inhibition rate was calculated utilizing the following formula: inhibition rate (%) = […] × 100, where Control OD is the absorbance of the negative control and Sample OD is the absorbance of the test sample. The IC50 values were determined with GraphPad Prism 5 through constructed dose–response curves.

[4] = system: HCC1806 cells; test: Cell proliferation by live-cell imaging (IncuCyte), HCC1806 TNBC cells; format: cell-based; conditions: 40 μM, 72 h
Method: (§1) As TNBC is a highly heterogeneous subgroup, including breast cancers with different molecular and phenotypic traits,[37] effects of compounds 5–10 on cell proliferation were also tested in additional TNBC cell lines, i.e., HCC1806 and HCC1937. As inhibitors of HCC1806 TNBC cells, compounds 5–10 were evaluated in parallel with compounds 3, ICG-001, and iCRT3 (Figures 10 and S12–S19, Supporting Information); as inhibitors of the HCC1937 TNBC cells, 5–10 were compared with 3 and iCRT3 (Figures 10, S20, and S21). Effects on cell proliferation were evaluated as above for the MDA-MB-231 TNBC cells at the latest time point of observation of 72 h.
(§2) Figure 10 Inhibition of MDA-MB-231, HCC1806, and HCC1937 TNBC cell growth by compounds 5–10 and reference compounds 3, […], and iCRT3 at 40 μM. Cell growth inhibition was quantified using the IncuCyte cell-by-cell analysis software, by comparison with the growth of DMSO-treated cells at 72 h, set at 100% (mean ± SD, n = 3, one-way ANOVA, **p ≤ 0.01, ****p ≤ 0.0001).
(§3) Cell proliferation of breast cancer cell lines upon continuous treatment with select compounds was evaluated by the real-time quantitative live-cell imaging system. MDA-MB-231 (1500 cells/well), HCC1806 (2000 cells/well), and HCC1937 (3000 cells/well) were seeded in 96-well plates, treated with increasing doses of selected compounds and images (5 images/well) were acquired every 8 h for 3 days at 10× magnification in an IncuCyte SX5 live-content imaging system (Essen Bioscience) at 37 °C with 5% CO2. Images were analyzed using IncuCyte cell-by-cell analysis software to detect and quantify live cells (phase-contrast). The number of cells at each time point was quantified using IncuCyte cell-by-cell analysis software, and cell growth was evaluated as the normalized ratio between counted cells at each time point normalized to those counted at time 0. Graph drawing and statistical analyses were performed in GraphPad Prism according to the statistical tests described in the figure legends.

[5] = system: HCC1937 cells; test: Cell proliferation by live-cell imaging (IncuCyte), HCC1937 TNBC cells; format: cell-based; conditions: 40 μM, 72 h
Method: as §1, §2, §3

O=S(=O)(Nc1ccc(-c2ccccn2)cc1)c1ccc(Br)cc1 [Compound 9, 4-Bromo-N-(4-(pyridin-2-yl)phenyl)benzenesulfonamide]
% Luciferase Activity HCT116 (residual) [1]: 4.33% | mRNA levels of Wnt-target genes Fgf20 and Sal4 [2]: strongly inhibited | improvement in SW480 cell growth inhibition compared with 5-FU [3]: 6 fold | effect on HCC1806 cell growth [4]: less effective | effect on HCC1937 cell growth [5]: less effective
